Test results published in US10131652B2, “Pyrimidinyloxy benzene derivatives as herbicides” (E. I. DU PONT DE NEMOURS AND COMPANY, priority 2014, dated 2018).

Key:
Assay type in all cases: in vivo
[1] = system: barnyardgrass (Echinochloa crus-galli); assay: Test B pre-/postemergence plant response
How it was run: (§1)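 Seeds in loam–sand blend given preemergence soil spray; separately, plants at one- to two-leaf stage (2–10 cm) sprayed postemergence, compounds in non-phytotoxic solvent with surfactant. Injury rated visually versus untreated controls after ~10 days in greenhouse, 0 (no effect) to 100 (complete control).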

[2] = system: corn (Zea mays); assay: Test B pre-/postemergence plant response
How it was run: as §1

[3] = system: giant foxtail (Setaria faberii); assay: Test B pre-/postemergence plant response
How it was run: as §1

[4] = system: pigweed (Amaranthus retroflexus); assay: Test B pre-/postemergence plant response
How it was run: as §1

[5] = system: wheat (Triticum aestivum); assay: Test B pre-/postemergence plant response
How it was run: as §1

[6] = system: barnyardgrass (Echinochloa crus-galli); assay: Test C flooded paddy test plant response; conditions: Flood, 250 g ai/ha; scale of 0 to 100 where 0 is no effect and 100 is complete control; 13 to 15 days
How it was run: (§2)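 Water-applied treatment: compounds go directly into floodwater standing 3 cm over the soil of pots holding 2-leaf-stage plants. Depth is kept constant; plants stay in a greenhouse 13 to 15 days before visual comparison with controls on a 0–100 scale.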

[7] = system: ducksalad (Heteranthera limosa); assay: Test C flooded paddy test plant response; conditions: Flood, 250 g ai/ha; scale of 0 to 100 where 0 is no effect and 100 is complete control; 13 to 15 days
How it was run: as §2

[8] = system: rice (Oryza sativa); assay: Test C flooded paddy test plant response; conditions: Flood, 250 g ai/ha; scale of 0 to 100 where 0 is no effect and 100 is complete control; 13 to 15 days
How it was run: as §2

[9] = system: small-flower umbrella sedge (Cyperus difformis); assay: Test C flooded paddy test plant response; conditions: Flood, 250 g ai/ha; scale of 0 to 100 where 0 is no effect and 100 is complete control; 13 to 15 days
How it was run: as §2

[10] = system: blackgrass (Alopecurus myosuroides); assay: Test D pre-/postemergence plant response; conditions: Postemergence; for Blackgrass plant response rating: scale 0 to 100 (0 no effect, 100 complete control); for Plant response rating, Blackgrass: scale 0 to 100, 0 no effect, 100 complete control
Source text: (§3) Seeds of plant species selected from blackgrass (Alopecurus myosuroides), Italian ryegrass (Lolium multiflorum), winter wheat (Triticum aestivum), galium (catchweed bedstraw, Galium aparine), corn (Zea mays), large (Lg) crabgrass (Digitaria sanguinalis), giant foxtail (Setaria faberii), johnsongrass (Sorghum halepense), lambsquarters (Chenopodium album), morningglory (Ipomoea coccinea), yellow nutsedge (Cyperus esculentus), pigweed (Amaranthus retroflexus), ragweed (common ragweed, Ambrosia elatior), soybean (Glycine max), bamyardgrass (Echinochloa crus-galli), oilseed rape (Brassica napus), waterhemp (common waterhemp, Amaranthus rudis), and velvetleaf (Abutilon theophrasti) were planted into a blend of loam soil and sand and treated preemergence with test chemicals formulated in a non-phytotoxic solvent mixture which included a surfactant. At the same time, plants selected from these crop and weed species and also kochia (Kochia scoparia), wild oat (Avena fatua), and chickweed (common chickweed, Stellaria media) were planted in pots containing Redi-Earth® planting medium (Scotts Company, 14111 Scottslawn Road, Marysville, Ohio 43041) comprising spaghnum peat moss, vermiculite, wetting agent and starter nutrients and treated with postemergence applications of test chemicals formulated in the same manner. Plants ranged in height from 2 to 18 cm (1- to 4-leaf stage) for postemergence treatments. Treated plants and controls were maintained in a greenhouse for 13 to 15 days, after which time all species were compared to controls and visually evaluated. Plant response ratings, summarized in Table D, are based on a scale of 0 to 100 where 0 is no effect and 100 is complete control. A dash (-) response means no test result.

[11] = system: galium (catchweed bedstraw, Galium aparine); assay: Test D pre-/postemergence plant response; conditions: Postemergence; for Galium plant response rating: scale 0 to 100 (0 no effect, 100 complete control); for Plant response rating, Galium: scale 0 to 100, 0 no effect, 100 complete control
Source text: as §3

[12] = system: johnsongrass (Sorghum halepense); assay: Test D pre-/postemergence plant response; conditions: Postemergence; for Johnsongrass plant response rating: scale 0 to 100 (0 no effect, 100 complete control); for Plant response rating, Johnsongrass: scale 0 to 100, 0 no effect, 100 complete control
Source text: as §3

[13] = system: lambsquarters (Chenopodium album); assay: Test D pre-/postemergence plant response; conditions: Postemergence; for Lambsquarters plant response rating: scale 0 to 100 (0 no effect, 100 complete control); for Plant response rating, Lambsquarters: scale 0 to 100, 0 no effect, 100 complete control
Source text: as §3

[14] = system: large (Lg) crabgrass (Digitaria sanguinalis); assay: Test D pre-/postemergence plant response; conditions: Postemergence; for Crabgrass, Large plant response rating: scale 0 to 100 (0 no effect, 100 complete control); for Plant response rating, Crabgrass, Large: scale 0 to 100, 0 no effect, 100 complete control
Source text: as §3

[15] = system: velvetleaf (Abutilon theophrasti); assay: Test D pre-/postemergence plant response; conditions: Postemergence; for Velvetleaf plant response rating: scale 0 to 100 (0 no effect, 100 complete control); for Plant response rating, Velvetleaf: scale 0 to 100, 0 no effect, 100 complete control
Source text: as §3

[16] = system: winter wheat (Triticum aestivum); assay: Test D pre-/postemergence plant response; conditions: Postemergence; for Wheat plant response rating: scale 0 to 100 (0 no effect, 100 complete control); for Plant response rating, Wheat: scale 0 to 100, 0 no effect, 100 complete control
Source text: as §3

[17] = 125 g ai/ha, postemergence, 0 to 100 scale, 0 no effect, 100 complete control
[18] = Postemergence, 500 g ai/ha, 0 to 100 scale (0 no effect, 100 complete control)
[19] = Preemergence, 125 g ai/ha, 0 to 100 scale where 0 is no effect and 100 is complete control
[20] = Preemergence, 500 g ai/ha, 0 to 100 scale where 0 is no effect and 100 is complete control

Compound: Cn1nnc(-c2ccccc2Oc2ncc(Br)cn2)n1 [Compound 50]
- Plant response rating, Barnyardgrass [1, 17]: 0
- Plant response rating, Barnyardgrass [1, 18]: 0
- Plant response rating, Barnyardgrass [1, 19]: 0
- Plant response rating, Barnyardgrass [1, 20]: 10
- Plant response rating, Corn [2, 17]: 0
- Plant response rating, Corn [2, 18]: 0
- Plant response rating, Foxtail, Giant [3, 17]: 0
- Plant response rating, Foxtail, Giant [3, 18]: 10
- Plant response rating, Foxtail, Giant [3, 19]: 0
- Plant response rating, Foxtail, Giant [3, 20]: 50
- Plant response rating, Pigweed [4, 17]: 70
- Plant response rating, Pigweed [4, 18]: 100
- Plant response rating, Pigweed [4, 19]: 60
- Plant response rating, Pigweed [4, 20]: 100
- Plant response rating, Wheat [5, 17]: 0
- Plant response rating, Wheat [5, 18]: 20
- Barnyardgrass plant response rating [6]: 0
- Ducksalad plant response rating [7]: 30
- Rice plant response rating [8]: 0
- Sedge, Umbrella plant response rating [9]: 0
- Blackgrass plant response rating ([10]; 16 g ai/ha): 0
- Blackgrass plant response rating ([10]; 31 g ai/ha): 0
- Plant response rating, Blackgrass ([10]; 62 g ai/ha): 0
- Plant response rating, Blackgrass ([10]; 125 g ai/ha): 0
- Galium plant response rating ([11]; 16 g ai/ha): 30
- Galium plant response rating ([11]; 31 g ai/ha): 15
- Plant response rating, Galium ([11]; 62 g ai/ha): 5
- Plant response rating, Galium ([11]; 125 g ai/ha): 60
- Johnsongrass plant response rating ([12]; 16 g ai/ha): 0
- Johnsongrass plant response rating ([12]; 31 g ai/ha): 0
- Plant response rating, Johnsongrass ([12]; 62 g ai/ha): 0
- Plant response rating, Johnsongrass ([12]; 125 g ai/ha): 0
- Lambsquarters plant response rating ([13]; 16 g ai/ha): 0
- Lambsquarters plant response rating ([13]; 31 g ai/ha): 5
- Plant response rating, Lambsquarters ([13]; 62 g ai/ha): 50
- Plant response rating, Lambsquarters ([13]; 125 g ai/ha): 5
- Crabgrass, Large plant response rating ([14]; 16 g ai/ha): 0
- Crabgrass, Large plant response rating ([14]; 31 g ai/ha): 0
- Plant response rating, Crabgrass, Large ([14]; 62 g ai/ha): 0
- Plant response rating, Crabgrass, Large ([14]; 125 g ai/ha): 5
- Velvetleaf plant response rating ([15]; 16 g ai/ha): 0
- Velvetleaf plant response rating ([15]; 31 g ai/ha): 0
- Plant response rating, Velvetleaf ([15]; 62 g ai/ha): 0
- Plant response rating, Velvetleaf ([15]; 125 g ai/ha): 40
- Wheat plant response rating ([16]; 16 g ai/ha): 0
- Wheat plant response rating ([16]; 31 g ai/ha): 0
- Plant response rating, Wheat ([16]; 62 g ai/ha): 5
- Plant response rating, Wheat ([16]; 125 g ai/ha): 5
